Assay [1] has as its target Tyrosine-protein kinase receptor UFO (Homo sapiens) (UniProt P30530). Conditions: at 10 µM.
The target in assay [2] is BMP-2-inducible protein kinase (Homo sapiens) (UniProt Q9NSY1). Description: Selectivity interaction (KinomeScan (DiscoverX)) EUB0000666a BMP2K. Conditions: at 10 µM.
In assay [3] the target is MAP kinase-activated protein kinase 2 (Homo sapiens, UniProt P49137). Description: Selectivity interaction (KinomeScan (DiscoverX)) EUB0000666a MAPKAPK2. As to conditions: at 10 µM.
MAP kinase-activated protein kinase 2, sequence (P49137 whole entry, looked up): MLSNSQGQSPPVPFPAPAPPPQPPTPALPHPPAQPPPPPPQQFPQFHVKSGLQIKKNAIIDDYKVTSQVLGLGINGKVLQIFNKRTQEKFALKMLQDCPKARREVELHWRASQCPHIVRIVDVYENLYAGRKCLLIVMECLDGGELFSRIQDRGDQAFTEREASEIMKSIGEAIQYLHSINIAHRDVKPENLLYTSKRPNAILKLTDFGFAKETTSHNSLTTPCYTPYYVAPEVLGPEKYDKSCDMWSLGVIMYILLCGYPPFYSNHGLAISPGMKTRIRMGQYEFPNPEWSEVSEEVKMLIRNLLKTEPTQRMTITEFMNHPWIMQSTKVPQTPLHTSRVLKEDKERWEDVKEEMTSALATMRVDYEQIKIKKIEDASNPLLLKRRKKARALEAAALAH
In assay [4] the target is Tyrosine-protein kinase Lyn (Homo sapiens, UniProt P07948). The assay is described as follows: Selectivity interaction (SelectScreen profiling (Invitrogen)) EUB0000607a LYN. Conditions: at 2 µM.
Tyrosine-protein kinase Lyn, sequence (P07948 2-512 limits assumed): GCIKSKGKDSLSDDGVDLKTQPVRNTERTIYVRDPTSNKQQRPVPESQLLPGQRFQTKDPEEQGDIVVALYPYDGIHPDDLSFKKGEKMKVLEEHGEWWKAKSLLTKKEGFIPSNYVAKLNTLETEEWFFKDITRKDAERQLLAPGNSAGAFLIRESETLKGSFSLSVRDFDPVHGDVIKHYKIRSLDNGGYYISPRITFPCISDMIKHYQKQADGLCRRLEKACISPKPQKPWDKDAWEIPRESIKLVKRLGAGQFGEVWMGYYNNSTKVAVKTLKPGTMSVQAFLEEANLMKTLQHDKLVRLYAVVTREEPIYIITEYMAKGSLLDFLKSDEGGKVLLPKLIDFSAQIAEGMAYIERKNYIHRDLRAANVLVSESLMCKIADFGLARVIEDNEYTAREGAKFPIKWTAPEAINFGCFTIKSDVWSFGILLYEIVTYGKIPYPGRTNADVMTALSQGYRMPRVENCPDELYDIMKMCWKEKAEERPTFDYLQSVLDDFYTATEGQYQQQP
Assay [5] deals with T1, Serine/threonine-protein kinase DCLK1 (Homo sapiens) (UniProt O15075).
T1 sequence (whole entry): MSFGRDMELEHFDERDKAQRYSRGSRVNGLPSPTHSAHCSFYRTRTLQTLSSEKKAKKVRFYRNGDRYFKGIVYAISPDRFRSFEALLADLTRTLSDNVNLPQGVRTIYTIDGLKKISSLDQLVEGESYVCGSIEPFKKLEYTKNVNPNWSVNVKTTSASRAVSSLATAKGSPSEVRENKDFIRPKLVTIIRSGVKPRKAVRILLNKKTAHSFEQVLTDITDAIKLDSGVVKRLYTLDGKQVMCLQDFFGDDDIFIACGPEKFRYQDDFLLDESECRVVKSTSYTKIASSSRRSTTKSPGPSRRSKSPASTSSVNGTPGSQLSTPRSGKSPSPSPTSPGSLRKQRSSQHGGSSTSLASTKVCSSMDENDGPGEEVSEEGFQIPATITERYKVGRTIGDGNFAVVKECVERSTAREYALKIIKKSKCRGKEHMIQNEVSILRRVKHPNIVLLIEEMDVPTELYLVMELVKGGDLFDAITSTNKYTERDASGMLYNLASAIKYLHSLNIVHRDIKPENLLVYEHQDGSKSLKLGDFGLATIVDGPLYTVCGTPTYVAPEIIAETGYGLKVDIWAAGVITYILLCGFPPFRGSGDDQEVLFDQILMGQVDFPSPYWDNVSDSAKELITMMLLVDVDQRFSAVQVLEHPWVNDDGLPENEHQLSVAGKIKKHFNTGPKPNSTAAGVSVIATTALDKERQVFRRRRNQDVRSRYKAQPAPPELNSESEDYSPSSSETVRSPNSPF
As to conditions: at 10 µM.

Assay [6] deals with T2, Tyrosine-protein kinase JAK3 (Homo sapiens) (UniProt P52333).
T2 sequence (whole entry): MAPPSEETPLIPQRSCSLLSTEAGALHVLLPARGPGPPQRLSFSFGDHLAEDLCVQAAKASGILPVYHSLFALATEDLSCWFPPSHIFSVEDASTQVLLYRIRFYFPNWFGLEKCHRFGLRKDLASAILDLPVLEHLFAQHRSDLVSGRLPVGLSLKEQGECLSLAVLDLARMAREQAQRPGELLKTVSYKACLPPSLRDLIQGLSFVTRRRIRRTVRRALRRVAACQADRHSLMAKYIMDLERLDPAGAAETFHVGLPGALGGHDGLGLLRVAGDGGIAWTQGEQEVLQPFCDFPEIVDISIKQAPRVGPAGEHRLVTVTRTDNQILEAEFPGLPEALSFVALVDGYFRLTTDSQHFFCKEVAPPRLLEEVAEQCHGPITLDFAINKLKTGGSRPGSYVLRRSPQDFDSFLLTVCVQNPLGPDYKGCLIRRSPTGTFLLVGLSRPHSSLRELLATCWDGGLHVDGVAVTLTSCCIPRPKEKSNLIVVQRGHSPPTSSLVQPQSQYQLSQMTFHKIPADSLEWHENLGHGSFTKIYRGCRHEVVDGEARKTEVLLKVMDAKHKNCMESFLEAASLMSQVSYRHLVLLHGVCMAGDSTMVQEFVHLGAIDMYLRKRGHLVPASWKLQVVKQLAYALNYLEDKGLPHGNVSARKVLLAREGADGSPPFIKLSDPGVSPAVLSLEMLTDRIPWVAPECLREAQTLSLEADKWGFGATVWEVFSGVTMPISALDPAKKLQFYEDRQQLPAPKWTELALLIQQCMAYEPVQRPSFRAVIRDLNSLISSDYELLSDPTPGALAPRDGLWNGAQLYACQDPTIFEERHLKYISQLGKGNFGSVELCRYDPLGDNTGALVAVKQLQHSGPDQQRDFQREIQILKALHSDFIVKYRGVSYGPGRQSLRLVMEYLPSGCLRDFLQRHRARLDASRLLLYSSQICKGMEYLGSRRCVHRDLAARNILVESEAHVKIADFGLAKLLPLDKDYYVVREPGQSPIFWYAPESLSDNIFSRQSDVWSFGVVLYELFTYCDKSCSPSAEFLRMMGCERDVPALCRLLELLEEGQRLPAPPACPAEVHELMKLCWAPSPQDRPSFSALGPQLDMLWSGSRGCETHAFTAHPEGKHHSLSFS
Description: Selectivity interaction (Antiproliferative activity against Tel-kinase transformed Ba/F3 cell line) EUB0000045b JAK3. The format is cell-based. Conditions: BaF3.

Assay [7] concerns the target T3, Rhodopsin kinase GRK1 (Homo sapiens) (UniProt Q15835).
T3 sequence (whole entry): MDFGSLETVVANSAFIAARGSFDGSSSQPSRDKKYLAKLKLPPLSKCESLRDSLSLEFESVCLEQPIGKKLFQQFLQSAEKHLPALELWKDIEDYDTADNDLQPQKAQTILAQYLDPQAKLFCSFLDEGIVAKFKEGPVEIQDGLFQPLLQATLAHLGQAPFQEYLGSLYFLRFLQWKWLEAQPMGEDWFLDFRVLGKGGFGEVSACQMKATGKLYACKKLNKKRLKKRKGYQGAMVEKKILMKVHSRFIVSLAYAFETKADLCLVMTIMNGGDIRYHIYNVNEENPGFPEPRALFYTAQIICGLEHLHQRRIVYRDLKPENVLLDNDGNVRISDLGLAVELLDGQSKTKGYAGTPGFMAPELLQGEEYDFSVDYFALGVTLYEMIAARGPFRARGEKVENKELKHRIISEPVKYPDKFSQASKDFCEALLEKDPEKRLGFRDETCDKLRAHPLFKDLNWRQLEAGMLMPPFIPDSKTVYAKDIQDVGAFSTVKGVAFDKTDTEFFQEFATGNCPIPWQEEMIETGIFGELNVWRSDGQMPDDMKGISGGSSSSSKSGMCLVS
Description: Selectivity interaction (KinomeScan (DiscoverX)) EUB0000655a GRK1. Conditions: at 10 µM.

In assay [8] the target is Ribosomal protein S6 kinase alpha-2 (Homo sapiens) (UniProt Q15349). Description: Selectivity interaction (KinomeScan (DiscoverX)) EUB0000618a RPS6KA2. As to conditions: at 10 µM.
Ribosomal protein S6 kinase alpha-2 (Homo sapiens), sequence (Q15349 whole entry): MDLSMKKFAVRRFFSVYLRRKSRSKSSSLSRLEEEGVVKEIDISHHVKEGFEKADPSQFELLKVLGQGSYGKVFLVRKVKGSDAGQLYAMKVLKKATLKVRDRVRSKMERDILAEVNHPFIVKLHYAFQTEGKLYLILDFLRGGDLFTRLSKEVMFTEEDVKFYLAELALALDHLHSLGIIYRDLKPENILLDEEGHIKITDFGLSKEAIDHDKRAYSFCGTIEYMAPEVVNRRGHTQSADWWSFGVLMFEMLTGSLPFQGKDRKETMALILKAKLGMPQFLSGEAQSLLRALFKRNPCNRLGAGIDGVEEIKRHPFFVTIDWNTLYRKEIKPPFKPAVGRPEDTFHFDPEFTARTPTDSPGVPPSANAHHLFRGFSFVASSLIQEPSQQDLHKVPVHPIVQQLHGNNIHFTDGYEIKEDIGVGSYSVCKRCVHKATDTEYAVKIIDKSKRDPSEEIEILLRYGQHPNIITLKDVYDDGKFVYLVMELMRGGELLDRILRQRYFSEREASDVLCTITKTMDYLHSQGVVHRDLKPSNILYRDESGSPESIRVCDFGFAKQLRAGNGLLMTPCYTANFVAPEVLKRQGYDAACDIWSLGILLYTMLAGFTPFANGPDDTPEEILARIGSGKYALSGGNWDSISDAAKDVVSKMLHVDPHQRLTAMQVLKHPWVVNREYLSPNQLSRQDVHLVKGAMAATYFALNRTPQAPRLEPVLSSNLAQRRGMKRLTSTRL
The target in assay [9] is Fibroblast growth factor receptor 3 (Homo sapiens, UniProt P22607). Description: Selectivity interaction (Kinase panel (DSF assay)) EUB0001558a FGFR3. For orientation: Differential scanning fluorimetry follows unfolding on heating by fluorescence.
Fibroblast growth factor receptor 3, sequence (P22607 23-806 limits assumed): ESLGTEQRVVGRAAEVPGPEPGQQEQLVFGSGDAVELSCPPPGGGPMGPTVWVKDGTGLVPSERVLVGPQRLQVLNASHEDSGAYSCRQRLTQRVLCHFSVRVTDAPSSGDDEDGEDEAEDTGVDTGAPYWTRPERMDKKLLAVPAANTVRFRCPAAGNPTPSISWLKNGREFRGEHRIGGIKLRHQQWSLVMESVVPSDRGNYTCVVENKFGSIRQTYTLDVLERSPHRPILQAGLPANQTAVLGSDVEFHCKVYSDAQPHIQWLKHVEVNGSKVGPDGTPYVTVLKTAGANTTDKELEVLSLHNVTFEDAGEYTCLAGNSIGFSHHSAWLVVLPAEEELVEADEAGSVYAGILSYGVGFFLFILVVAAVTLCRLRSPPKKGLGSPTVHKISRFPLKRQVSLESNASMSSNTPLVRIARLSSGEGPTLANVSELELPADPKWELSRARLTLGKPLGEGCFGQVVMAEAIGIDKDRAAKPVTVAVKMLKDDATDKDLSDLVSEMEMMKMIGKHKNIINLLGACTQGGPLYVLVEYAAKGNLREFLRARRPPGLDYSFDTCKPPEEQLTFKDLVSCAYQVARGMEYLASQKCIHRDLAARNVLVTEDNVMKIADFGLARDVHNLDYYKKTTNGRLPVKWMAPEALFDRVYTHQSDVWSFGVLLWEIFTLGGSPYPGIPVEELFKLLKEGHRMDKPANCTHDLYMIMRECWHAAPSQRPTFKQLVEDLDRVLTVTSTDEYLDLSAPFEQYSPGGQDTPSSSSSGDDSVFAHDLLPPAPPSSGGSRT

BMP-2-inducible protein kinase (Homo sapiens), sequence (Q9NSY1 whole entry, looked up): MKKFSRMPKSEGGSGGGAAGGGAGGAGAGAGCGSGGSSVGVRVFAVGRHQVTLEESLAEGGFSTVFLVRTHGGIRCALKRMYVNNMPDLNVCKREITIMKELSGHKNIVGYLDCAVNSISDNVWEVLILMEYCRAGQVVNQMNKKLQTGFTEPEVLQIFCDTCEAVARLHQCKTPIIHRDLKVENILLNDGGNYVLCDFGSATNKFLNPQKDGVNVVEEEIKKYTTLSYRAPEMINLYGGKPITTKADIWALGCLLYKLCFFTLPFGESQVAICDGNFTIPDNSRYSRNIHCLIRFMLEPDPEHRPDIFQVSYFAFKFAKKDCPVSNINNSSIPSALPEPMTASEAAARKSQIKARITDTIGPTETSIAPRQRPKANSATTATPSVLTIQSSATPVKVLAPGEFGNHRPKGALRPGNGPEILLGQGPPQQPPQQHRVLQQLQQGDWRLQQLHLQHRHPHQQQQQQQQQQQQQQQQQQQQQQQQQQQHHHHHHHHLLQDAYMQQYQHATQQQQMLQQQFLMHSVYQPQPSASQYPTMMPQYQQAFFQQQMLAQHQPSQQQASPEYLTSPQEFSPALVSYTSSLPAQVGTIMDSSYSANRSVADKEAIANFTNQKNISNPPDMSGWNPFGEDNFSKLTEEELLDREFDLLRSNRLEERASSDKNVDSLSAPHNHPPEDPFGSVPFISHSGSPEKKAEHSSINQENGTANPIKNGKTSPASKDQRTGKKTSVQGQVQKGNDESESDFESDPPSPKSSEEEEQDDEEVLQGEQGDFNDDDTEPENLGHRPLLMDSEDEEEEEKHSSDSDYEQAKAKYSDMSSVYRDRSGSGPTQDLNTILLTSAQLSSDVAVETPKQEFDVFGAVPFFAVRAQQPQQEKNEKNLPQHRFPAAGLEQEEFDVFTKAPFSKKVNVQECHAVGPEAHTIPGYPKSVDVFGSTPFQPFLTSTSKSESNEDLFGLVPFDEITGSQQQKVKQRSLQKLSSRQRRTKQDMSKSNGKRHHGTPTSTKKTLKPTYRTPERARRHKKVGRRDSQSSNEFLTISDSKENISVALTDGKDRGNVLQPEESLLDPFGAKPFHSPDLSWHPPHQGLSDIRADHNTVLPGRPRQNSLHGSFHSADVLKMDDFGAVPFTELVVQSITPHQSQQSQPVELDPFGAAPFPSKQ
Tyrosine-protein kinase receptor UFO (Homo sapiens), sequence (P30530 whole entry): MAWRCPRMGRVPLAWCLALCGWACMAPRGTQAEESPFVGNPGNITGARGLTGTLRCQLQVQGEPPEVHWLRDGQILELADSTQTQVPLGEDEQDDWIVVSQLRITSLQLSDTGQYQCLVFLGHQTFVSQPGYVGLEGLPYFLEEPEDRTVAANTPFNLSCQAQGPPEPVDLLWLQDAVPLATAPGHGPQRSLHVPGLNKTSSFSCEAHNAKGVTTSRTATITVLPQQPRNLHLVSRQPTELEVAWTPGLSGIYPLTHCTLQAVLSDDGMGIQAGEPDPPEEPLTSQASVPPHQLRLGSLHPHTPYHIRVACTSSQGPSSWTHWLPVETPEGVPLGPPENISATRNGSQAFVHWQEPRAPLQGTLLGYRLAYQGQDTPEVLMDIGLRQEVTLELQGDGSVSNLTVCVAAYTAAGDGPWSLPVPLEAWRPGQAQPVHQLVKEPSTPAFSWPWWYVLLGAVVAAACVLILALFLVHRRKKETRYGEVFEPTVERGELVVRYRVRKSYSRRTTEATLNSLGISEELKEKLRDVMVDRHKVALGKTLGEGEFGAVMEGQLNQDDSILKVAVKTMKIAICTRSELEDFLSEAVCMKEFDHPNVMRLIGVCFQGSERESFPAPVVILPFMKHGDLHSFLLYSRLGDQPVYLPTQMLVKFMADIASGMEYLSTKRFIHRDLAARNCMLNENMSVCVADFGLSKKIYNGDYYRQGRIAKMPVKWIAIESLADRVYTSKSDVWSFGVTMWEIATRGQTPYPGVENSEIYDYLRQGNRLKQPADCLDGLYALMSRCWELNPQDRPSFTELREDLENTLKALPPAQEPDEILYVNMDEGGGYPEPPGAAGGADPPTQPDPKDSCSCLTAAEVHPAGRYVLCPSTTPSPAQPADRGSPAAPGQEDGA

In assay [1], `CCN(CC)CCCCNc1ncc2cc(-c3cc(OC)cc(OC)c3)c(NC(=O)NC(C)(C)C)nc2n1` came in with a % of control of 100%. With `O=C(NOC[C@H](O)CO)c1ccc(F)c(F)c1Nc1ccc(I)cc1F`, the % of control is 91% in assay [2] and 84% in [3]. In assay [4], `CNC(=O)Nc1ccc(-c2nc(N3CC4CCC(C3)O4)c3cnn(C4CCC5(CC4)OCCO5)c3n2)cc1` registered a % of inhibition of 5%. In the case of `Cc1cc([C@@H](C)Nc2ccccc2C(=O)O)c2nc(N3CCOCC3)cc(=O)n2c1` [AZD-6482], the % of control in assay [5] worked out at 78%.

On to `C=CC(=O)Nc1cc(-n2c(=O)ccc3cnc4ccc(-c5ccc(NS(C)(=O)=O)cc5)cc4c32)ccc1C`, for which the GIC50 in assay [6] amounted to 7.98 µM. On to `CN(C)CCOc1ccc(-c2nc(-c3ccncc3)c(-c3ccc4c(c3)CC/C4=N\O)[nH]2)cc1`, for which the % of control in assay [7] came out at 91%.

Compound `O[C@H]1CC[C@H](Nc2ncc3nc(Nc4c(F)cc(F)cc4F)n([C@H]4CCOC4)c3n2)CC1` returned a % of control in assay [8] of 91%. The compound `CC(C)(O)[C@H](F)CN1Cc2cc(NC(=O)c3cnn4cccnc34)c(N3CCOCC3)cc2C1=O` displayed a dTM in assay [9] of 2.5 K.

Source of the values: ChEMBL document CHEMBL5465560, “Selectivity Literature for EUbOPEN Chemogenomic Library” (2024).
